From patent US5596002A, “Method of treating chloroquine-resistant malaria with aminoquinoline derivatives” (Hoffmann-La Roche Inc., priority 1993, dated 1997)
In brackets after ≈: the same amount, converted by molar mass. Read-outs that look alike come from different tables or passages of the source.

What was measured:
[1] = tested on: Plasmodium falciparum, chloroquine-sensitive strain NF54; test: activity against P. falciparum in vitro, strain NF54; format: cell-based; conditions: Plasmodium falciparum; chloroquine-sensitive strain NF54; 48 h-72 h; read-out: IC50 (50% growth inhibition)
Method: (§1) Test method for the determination of the activity against P. falciparum in vitro
(§2) The preparations of the present invention were tested on intraerythrocytary stages of P. falciparum from asynchronous cultures according to the method of Desjardin et al. (Desjardins, R. E. et al: Quantitative assessment of antimalarial activity in vitro by a semiautomated microdilution technique. Antimicrob. Agents Chemother. 16, 710-718, (1979)).
(§3) The culture medium consisted of RPMI 1640 with the addition of 25 mM HEPES, 25 mM NaHCO3, […] neomycin and 10% human serum (A^+). Human-A^+ erythrocytes were used as the P. falciparum host cells. The parasites were maintained at 37° C. in an atmosphere of 3% O2, 4% CO2, 93% N2 and at 95% relative humidity.
(§4) In order to determine the activity, the preparations were dissolved in DMSO, pre-diluted in the culture medium to a suitable starting concentration and subsequently titrated-out into microtitre plates in the 2nd stage over 6-7 steps. After the addition of the parasite culture (0.7% parasitemia in 2.5% erythrocyte suspension), the test plates were incubated under the conditions given above for 48 h-72 h. The parasite growth in the different preparation concentrations was determined using [G-^3 H]-hypoxanthin incorporation compared to untreated control cultures on the same test plates. The 50% growth inhibition (IC50) was calculated according to logit regression analysis from the resulting dosage-activity curve.
(§5) The preparations were tested on at least one chloroquine-resistant and one chloroquine-sensitive P. falciparum strain. Additional sensitive and resistant strains were also included for further characterization.
(§6) Table 1 below contains the IC50 values measured in vitro for the growth inhibition of chloroquine-sensitive and chloroquine-resistant strains of the human pathogenic Plasmodium falciparum.

[2] = tested on: Plasmodium falciparum, chloroquine-sensitive strain FCH5C2; test: activity against P. falciparum in vitro, strain FCH5C2; format: cell-based; conditions: chloroquine-sensitive strain FCH5C2, 48 h-72 h, read-out: IC50 (50% growth inhibition)
Method: as §1, §2, §3, §4, §5, §6

[3] = tested on: Plasmodium falciparum, chloroquine-sensitive strain HB3; test: activity against P. falciparum in vitro, strain HB3; format: cell-based; conditions: chloroquine-sensitive strain HB3, 48 h-72 h, read-out: IC50 (50% growth inhibition)
Method: as §1, §2, §3, §4, §5, §6

[4] = tested on: Plasmodium falciparum, chloroquine-sensitive strain RFMEF3; test: activity against P. falciparum in vitro, strain RFMEF3; format: cell-based; conditions: chloroquine-sensitive strain RFMEF3, 48 h-72 h, read-out: IC50 (50% growth inhibition)
Method: as §1, §2, §3, §4, §5, §6

[5] = tested on: Plasmodium falciparum, chloroquine-sensitive strain Ro7 3; test: activity against P. falciparum in vitro, strain Ro7 3; format: cell-based; conditions: chloroquine-sensitive strain Ro7 3, 48 h-72 h, read-out: IC50 (50% growth inhibition)
Method: as §1, §2, §3, §4, §5, §6

[6] = tested on: Plasmodium falciparum, chloroquine-resistant strain RFCR3; test: activity against P. falciparum in vitro, strain RFCR3; format: cell-based; conditions: chloroquine-resistant strain RFCR3, 48 h-72 h, read-out: IC50 (50% growth inhibition)
Method: as §1, §2, §3, §4, §5, §6

[7] = tested on: Plasmodium falciparum, chloroquine-resistant strain ItG2 F6; test: activity against P. falciparum in vitro, strain ItG2 F6; format: cell-based; conditions: chloroquine-resistant strain ItG2 F6, 48 h-72 h, read-out: IC50 (50% growth inhibition)
Method: as §1, §2, §3, §4, §5, §6

[8] = tested on: Plasmodium falciparum, chloroquine-resistant strain Indo; test: activity against P. falciparum in vitro, strain Indo; format: cell-based; conditions: chloroquine-resistant strain Indo, 48 h-72 h, read-out: IC50 (50% growth inhibition)
Method: as §1, §2, §3, §4, §5, §6

[9] = tested on: Plasmodium falciparum, chloroquine-resistant strain K1; test: activity against P. falciparum in vitro, strain K1; format: cell-based; conditions: Plasmodium falciparum; chloroquine-resistant strain K1; 48 h-72 h; read-out: IC50 (50% growth inhibition)
Method: as §1, §2, §3, §4, §5, §6

[10] = tested on: Plasmodium falciparum, chloroquine-resistant strain W2; test: activity against P. falciparum in vitro, strain W2; format: cell-based; conditions: chloroquine-resistant strain W2, 48 h-72 h, read-out: IC50 (50% growth inhibition)
Method: as §1, §2, §3, §4, §5, §6

[11] = tested on: Plasmodium falciparum, chloroquine-resistant strain 7G8; test: activity against P. falciparum in vitro, strain 7G8; format: cell-based; conditions: chloroquine-resistant strain 7G8, 48 h-72 h, read-out: IC50 (50% growth inhibition)
Method: as §1, §2, §3, §4, §5, §6

[12] = tested on: Plasmodium falciparum, chloroquine-resistant strain W2 Mef; test: activity against P. falciparum in vitro, strain W2 Mef; format: cell-based; conditions: 48 h-72 h, read-out: IC50 (50% growth inhibition)
Method: as §1, §2, §3, §4, §5, §6

[13] = tested on: Plasmodium berghei (strain ANKA); test: activity against Plasmodium berghei in vivo (infected mice); conditions: mice; for ED50: single administration po, dose reducing average erythrocyte infection rate by 50%, read-out: ED50 (po); for inhibition in vivo at 10 mg/kg: 48 hours after treatment (D+3)
Method: Test method for the determination of the activity against Plasmodium berghei in vivo
The preparations according to the present invention were tested on mice infected with malaria pathogens (Plasmodium berghei). Male albino mice (IBM:MORO(SPF), FUELLINSDORF) weighing about 25 g were used as the test animals. They were kept in climatized rooms at 21°-22° C. in groups of 5 animals per cage. They received ad libitum a diet feed with a low PABA content ("NAFAG FUTTER" No. 9009 PAB-45, PABA content 45 mg/kg) and drinking water. On the first day of the test (D0) the test animals were infected with Plasmodium berghei (strain ANKA). For this there was used heparinized blood of a donor mouse with about 30% parasitemia, which was diluted with physiological saline such that it contains 10^8 parasitized erythrocytes per ml. 0.2 ml of this suspension was injected intravenously (i.v.) into the mice to be treated and into the control mice. In untreated control animals the parasitemia normally reaches 30-40% on the third day after the infection (D+3) and the test animals die between days +5 and +7.
The substances to be tested were dissolved or suspended in distilled water or in a mixture of 7% Tween 80, 3% alcohol (96%) and water. Usually, 0.25 ml of this solution or suspension was administered once subcutaneously and perorally to groups of 5 test animals. Treatment was effected 24 hours after the infection. 10 control animals were treated in the same manner with solvent or suspension medium per test.
All substances were tested in a first test in a single dosage of 10 mg/kg. Only those substances which in this test (10 mg/kg) had shown a parasitaemia reduction of 90% were used for the titration.
48 hours after the treatment (D+3), blood smears were prepared from all animals using blood from tail veins and were stained with Giemsa. The average erythrocyte infection rate (parasitemia in %) in the control groups as well as in the groups which had been treated with the test compounds was determined by counting under a microscope. The difference in the average values of the infection rates of control group (100%) and treated groups was calculated and expressed as a percentage reduction (GI %). The ED50 or ED90 was determined mathematically by means of the JMP programme (nonlinear fit). The ED50 (ED90) in mg/kg is that dose which after single administration reduces the average erythrocyte infection rate by 50% (90%) in comparison to the control group.
Table 2 below contains data with respect to the activity measured against Plasmodium berghei in mice: GI % is the percentage reduction in the parasitemia after a single dose of 10 mg/kg of the test substance administered perorally (po) or subcutaneously (sc); ED50 and ED90 are the effective doses of the test substance administered perorally or subcutaneously.

[14] = single dose 10 mg/kg po, read-out: GI % at 10 mg/kg (po): percentage reduction in the parasitemia
[15] = single dose 10 mg/kg sc, read-out: GI % at 10 mg/kg (sc): percentage reduction in the parasitemia

Structure (SMILES)	IC50 [1] [ng/mL]	IC50 [2] [ng/mL]	IC50 [3] [ng/mL]	IC50 [4] [ng/mL]	IC50 [5] [ng/mL]	IC50 [6] [ng/mL]	IC50 [7] [ng/mL]	IC50 [8] [ng/mL]	IC50 [9] [ng/mL]	IC50 [10] [ng/mL]	IC50 [11] [ng/mL]	IC50 [12] [ng/mL]	ED50 [13] [mg/kg]	inhibition in vivo at 10 mg/kg [13, 14] [%]	inhibition in vivo at 10 mg/kg [13, 15] [%]
CC(CN(C)C)Nc1ccnc2cc(Cl)ccc12 (racemic) [Example 1, (RS)-N2-(7-Chloro-quinolin-4-yl)-N1,N1-dimethyl-propane-1,2-diamine]	4 (≈ 0.0152 µM)	8 (≈ 0.0303 µM)	7 (≈ 0.0265 µM)	7 (≈ 0.0265 µM)	5 (≈ 0.019 µM)	15 (≈ 0.0569 µM)	4 (≈ 0.0152 µM)	8 (≈ 0.0303 µM)	9 (≈ 0.0341 µM)	9 (≈ 0.0341 µM)	9 (≈ 0.0341 µM)	7 (≈ 0.0265 µM)	2.3	99.9	99.9
CCN(CC)CC(C)Nc1ccnc2cc(Cl)ccc12 (racemic) [Example 2, (RS)-N2-(7-Chloro-quinolin-4-yl)-N1,N1-diethyl-propane-1,2-diamine]	7 (≈ 0.024 µM)	7 (≈ 0.024 µM)	7 (≈ 0.024 µM)	7 (≈ 0.024 µM)	6 (≈ 0.0206 µM)	8 (≈ 0.0274 µM)	5 (≈ 0.0171 µM)	6 (≈ 0.0206 µM)	14 (≈ 0.048 µM)	8 (≈ 0.0274 µM)	8 (≈ 0.0274 µM)	9 (≈ 0.0308 µM)	3.2	99.8	99.9
CCN(CC)[C@@H]1CCCC[C@H]1Nc1ccnc2cc(Cl)ccc12 (racemic) [Example 9, (1RS,2RS)-N1-(7-Chloro-quinolin-4-yl)-N2,N2-diethyl-cyclohexane-1,2-diamine]	11 (≈ 0.0331 µM)	15 (≈ 0.0452 µM)	14 (≈ 0.0422 µM)	12 (≈ 0.0362 µM)	11 (≈ 0.0331 µM)	17 (≈ 0.0512 µM)	17 (≈ 0.0512 µM)	18 (≈ 0.0542 µM)	32 (≈ 0.0964 µM)	31 (≈ 0.0934 µM)	30 (≈ 0.0904 µM)	25 (≈ 0.0753 µM)	4.4	99	99.6
Clc1ccc2c(N[C@@H]3CCCC[C@H]3N3CCCC3)ccnc2c1 (racemic) [Example 10, (1RS,2RS)-(7-Chloro-quinolin-4-yl)-(2pyrrolidin-1-yl-cyclohexyl)-amine]	7 (≈ 0.0212 µM)	5 (≈ 0.0152 µM)	8 (≈ 0.0243 µM)	6 (≈ 0.0182 µM)	7 (≈ 0.0212 µM)	18 (≈ 0.0546 µM)	7 (≈ 0.0212 µM)	16 (≈ 0.0485 µM)	17 (≈ 0.0515 µM)	13 (≈ 0.0394 µM)	15 (≈ 0.0455 µM)	15 (≈ 0.0455 µM)	6.4	99	99
CCN(CC)[C@@H]1CCC[C@H]1Nc1ccnc2cc(Cl)ccc12 (racemic) [Example 11, (1RS,2RS)-N1-(7-Chloro-quinolin-4-yl)-N2,N2-diethyl-cyclopentane-1,2-diamine]	5 (≈ 0.0157 µM)	7 (≈ 0.022 µM)	6 (≈ 0.0189 µM)	6 (≈ 0.0189 µM)	5 (≈ 0.0157 µM)	13 (≈ 0.0409 µM)	6 (≈ 0.0189 µM)	10 (≈ 0.0315 µM)	18 (≈ 0.0566 µM)	15 (≈ 0.0472 µM)	9 (≈ 0.0283 µM)	9 (≈ 0.0283 µM)	2.2	99.9	99.9
CN1CCCC(Nc2ccnc3cc(Cl)ccc23)C1 (racemic) [Example 19a, (RS)-(7-Chloro-quinolin-4-yl)-(1-methyl-piperidin-3-yl)-amine]	6 (≈ 0.0218 µM)	7 (≈ 0.0254 µM)	6 (≈ 0.0218 µM)	7 (≈ 0.0254 µM)	5 (≈ 0.0181 µM)	11 (≈ 0.0399 µM)	5 (≈ 0.0181 µM)	8 (≈ 0.029 µM)	9 (≈ 0.0326 µM)	10 (≈ 0.0363 µM)	8 (≈ 0.029 µM)	6 (≈ 0.0218 µM)	2.4	99.9	99.9
CN1CCC(Nc2ccnc3cc(Cl)ccc23)C1 (racemic) [Example 33a, (R,S)-(7-Chloro-quinolin-4-yl)-(1-methyl-pyrrolidin-3-yl)-amine]	7 (≈ 0.0267 µM)	8 (≈ 0.0306 µM)	7 (≈ 0.0267 µM)	7 (≈ 0.0267 µM)	5 (≈ 0.0191 µM)	9 (≈ 0.0344 µM)	5 (≈ 0.0191 µM)	9 (≈ 0.0344 µM)	8 (≈ 0.0306 µM)	9 (≈ 0.0344 µM)	9 (≈ 0.0344 µM)	7 (≈ 0.0267 µM)	3.3	99.7	99.9
Clc1ccc2c(N[C@@H]3CCC[C@H]3N3CCCC3)ccnc2c1 (relative stereo) [Example 11a, (1RS,2RS)-N1-(7-Chloro-quinolin-4-yl)-(2-pyrrolidin-1-yl-cyclopentyl)-amine]	7 (≈ 0.0222 µM)	7 (≈ 0.0222 µM)	6 (≈ 0.019 µM)	7 (≈ 0.0222 µM)	4 (≈ 0.0127 µM)	18 (≈ 0.057 µM)	8 (≈ 0.0253 µM)	15 (≈ 0.0475 µM)	15 (≈ 0.0475 µM)	17 (≈ 0.0538 µM)	14 (≈ 0.0443 µM)	15 (≈ 0.0475 µM)	4.5	99	99.6
Clc1ccc2c(NCCN3CC4CCC(CC4)C3)ccnc2c1 [Example 32]	7 (≈ 0.0212 µM)	9 (≈ 0.0273 µM)	9 (≈ 0.0273 µM)	8 (≈ 0.0243 µM)	7 (≈ 0.0212 µM)	16 (≈ 0.0485 µM)	10 (≈ 0.0303 µM)	15 (≈ 0.0455 µM)	16 (≈ 0.0485 µM)	15 (≈ 0.0455 µM)	15 (≈ 0.0455 µM)	13 (≈ 0.0394 µM)			
